Tests used:
Type in all cases: cell-based
MIP 101 colon carcinoma = experiment: Anchorage Dependent Growth Monolayer Assay (ADGMA), MIP 101; settings: Homo sapiens, Colon carcinoma cell, 72 h; MIP 101 colon carcinoma cells, 3-day exposure, MTT, A540; * = average of two independent experiments
Source text: (§1) As indicated above, all of the compounds of formula I are anti-tumor agents and are, therefore, useful in inhibiting the growth of various lymphomas, sarcomas, carcinomas, myelomas, and leukemia cell lines. […] This assay was adapted from the 60 cell line assay used by the National Cancer Institute (NCI) with the following modifications:
(§2) 1) four cell lines representative for the important tumor types, viz., MIP 101 colon carcinoma, HCT 116 colon carcinoma, 1A9 ovarian carcinoma and 1A9PTX22 ovarian carcinoma were utilized; and 2) a tetrazolium derivative, viz., MTT, was utilized to determine cell density.
(§3) The ADGMA compares the number of viable cells following a 3-day exposure to a test compound relative to the number of cells present at the time the test compound was added. […] The absorbance at 540 nm (A540) of the formazan derivative is proportional to the number of viable cells. The IC50 for a test compound is the concentration of compound required to reduce the final cell number to 50% of the final control cell number. If cell proliferation is inhibited, the assay further defines compounds as cytostatic (cell number after 3-day compound incubation>cell number at time of compound addition) or cytotoxic (cell number after 3-day compound incubation<cell number at time of compound addition).
(§4) The HCT 116 colon carcinoma cell line was obtained from the American Type Culture Collection (ATCC, Rockville, Md.). The MIP 101 colon carcinoma was obtained from Dr. Robert Kramer (Bristol Meyers Squibb) and was previously described (Niles R M, Wilhelm S A, Steele G D JR, Burke B, Christensen T, Dexter D, O'Brien M J, Thomas P, Zamcheck N. Isolation and characterization of an undifferentiated human colon carcinoma cell line (MIP 101). Cancer Invest. 1987;5(6):545–52). The 1A9 and the 1A9PTX22 ovarian tumor cell lines were obtained from Dr. Tito Fojo, Medicine Branch, Division of Clinical Sciences, National Cancer Institute, National Institutes of Health, Bethesda, Md. 20892. The 1A9 is a clone of the ovarian carcinoma cell line, A2780 (Giannakakou P, Sackett, D L, Kang Y-K, Zhan Z, Buters J T M, Fojo T, Poruchynsky M S. Paclitaxel-resistant human ovarian cancer cells have mutant β-tubulins that impaired paclitaxel-driven polymerization. J. Biol. Chem. 1997, 272(4):17118–17125). The 1A9PTX22 subline was isolated as an individual clone from the 1A9 cell line in a single step selection by exposure to 5 ng/mL paclitaxel in the presence of 5 μg/mL of verapamil. All cell lines were used between passages 4–20 following thawing. MIP 101 colon carcinoma, HCT 116 colon carcinoma, 1A9 ovarian carcinoma and 1A9PTX22 ovarian carcinoma cell lines are maintained and plated in RPMI 1640 medium containing 10% fetal bovine serum.
(§5) Cells are trypsinized and counted using a hemacytometer to determine cell concentrations. Cells were then plated in their respective maintenance media (200 μL/well) in 96-well plates at the following concentrations: MIP 101, 2000 cells/well, HCT 116, 2000 cells/well, 1A9, 10000 cells/well, and 1A9PTX22, 10000 cells/well. […] Initial cell densities, assayed one day after plating, are roughly 0.10–0.20 A540 absorbance units greater than the media blank. Ninety-six-well plates were seeded on day 0 and the test compounds are added on day 1. A “time 0” plate was created that received media only in row A and one cell line/row in rows B–E. The “time 0” plate was processed 24 hours after plating (at the time when drugs were added to experimental plates), as follows: To each well 5 micoliters of the MTT stock solution (0.5 mg/mL in PBS) was added to each well and then incubated for three hours at 37° C., 5% CO2, in a humidified environment. Media was then carefully and completely removed. Plates were allowed to dry in the dark. Dimethylsulfoxide (DMSO) was added to each well (100 μL/well) and plates were placed on an orbital shaker for 2 hours. […]

HCT 116 colon carcinoma = experiment: Anchorage Dependent Growth Monolayer Assay (ADGMA), HCT 116; settings: Homo sapiens, 72 h; HCT 116 colon carcinoma cells, 3-day exposure, MTT, A540; * = average of two independent experiments; read-out: IC50 HCT116
Source text: as §1, §2, §3, §4, §5

1A9 ovarian carcinoma = experiment: Anchorage Dependent Growth Monolayer Assay (ADGMA), 1A9; settings: Homo sapiens, Ovarian carcinoma cell, 72 h; 1A9 ovarian carcinoma cells, 3-day exposure, MTT, A540; * = average of two independent experiments
Source text: as §1, §2, §3, §4, §5

[1] = test system: 1A9PTX22 ovarian carcinoma; experiment: Anchorage Dependent Growth Monolayer Assay (ADGMA), 1A9PTX22; settings: Homo sapiens, 1A9/ptx-22, 72 h; 1A9PTX22 ovarian carcinoma cells (paclitaxel-selected subline), 3-day exposure, MTT, A540; * = average of two independent experiments
Source text: as §1, §2, §3, §4, §5

| SMILES | IC50 (MIP 101 colon carcinoma) | IC50 (HCT 116 colon carcinoma) | IC50 (1A9 ovarian carcinoma) | IC50 [1] |
| --- | --- | --- | --- | --- |
| C=C/C=C\[C@H](C)C(OC(N)=O)C(C)C(O)C(C)C/C(C)=C\[C@H](C)[C@@H](O)[C@@H](C)CN(C)C(=O)CC1CCCCC1 (some centres unmarked) [Ex. 5] | 600 nM | 300 nM | 400 nM | 80 nM |
| C=C/C=C\[C@H](C)C(OC(N)=O)C(C)C(O)C(C)C/C(C)=C\[C@H](C)[C@@H](O)[C@@H](C)COC(=O)NC1CCCCC1 (stereo partly drawn) [Ex. 2, (5Z,8S,9R,10S,11S,12S,13Z)-11-[(aminocarbonyl)oxy]-3,9-dihydroxy-2,4,6,8, 10,12-hexamethyl-5,13,15-hexadecatrienyl ester cyclohexylcarbamic acid] | 3200 nM | 400 nM | 500 nM | 400 nM |
| CC(=O)O[C@H]1C(=O)[C@@]2(C)[C@H]([C@H](OC(=O)c3ccccc3)[C@]3(O)C[C@H](OC(=O)[C@H](O)[C@@H](NC(=O)c4ccccc4)c4ccccc4)C(C)=C1C3(C)C)[C@]1(OC(C)=O)CO[C@@H]1C[C@@H]2O [Paclitaxel, reference compound] | 200 ± 60 nM | 0.3 ± 0.2 nM | 47 ± 7 nM | 1 ± 1 nM |
| C=C/C=C\[C@H](C)[C@H](OC(N)=O)[C@@H](C)[C@H](O)[C@@H](C)C/C(C)=C\C(C)C(O)C(C)/C=C\[C@@H](O)C[C@H]1CCCC(=O)O1 (stereo partly drawn) [Ex. 1, 6-[(2S,3Z,8Z,11S,12R,13S,14S,15S,16Z)-14-[(aminocarbonyl)oxy]-2,6,12-trihydroxy-5,7,9,11,13,15-hexamethyl-3,8,16,18-nonadecatetraenyl]tetrahydro-(6R)-2H-pyran-2-one] | 60 ± 10 nM | 7 ± 5 nM | 6 ± 2 nM | 7 ± 2 nM |
| C=C/C=C\[C@H](C)C(OC(N)=O)C(C)C(O)C(C)C/C(C)=C\[C@H](C)[C@@H](O)[C@@H](C)/C=C\COc1ccccc1 (stereo partly drawn) [Ex. 3, (2Z,7Z,10S,11R,12S,13S,14S,15Z)-4,6,8,10,12,14-hexamethyl-1-phenoxy-2,7,15,17-octadecatetraene-5,11,13-triol-13-carbamate] | 400 ± 100 nM | 200 ± 100 nM | 300 ± 90 nM | 100 ± 40 nM |
| C=C/C=C\[C@H](C)C(OC(N)=O)C(C)C(O)C(C)C/C(C)=C\[C@H](C)[C@@H](O)[C@@H](C)/C=C\C(O)CC1CCCC1 (stereo partly drawn) [Ex. 6, (2S,3Z,5S,6S,7S,8Z,11S,12R,13R,14S,15S,16Z)-1-cyclopentyl-5,7,9,11,13,15-hexamethyl-3,8,16,18-nonadecatetraene-2,6,12,14-tetrol-14-carbamate] | 6 nM | 1 nM | 0.3 nM | 1 nM |
| C=C/C=C\[C@H](C)C(OC(N)=O)C(C)C(O)C(C)C/C(C)=C\[C@H](C)[C@@H](O)[C@@H](C)/C=C\C(O)CC(C)C (stereo partly drawn) [Ex. 7, (2S,3Z,5S,6S,7S,8Z,11S,12R,13R,14S,15S,16Z)-1-isopropyl-5,7,9,11,13,15-hexamethyl-3,8,16,18-nonadecatetraene-2,6,12,14-tetrol-14-carbamate] | 100 nM | 30 nM | 30 nM | 60 nM |
| C=C/C=C\[C@H](C)C(OC(N)=O)C(C)C(O)C(C)C/C(C)=C\[C@H](C)[C@@H](O)[C@@H](C)/C=C\C(=O)N(C)c1ccccc1 (stereo partly drawn) [Ex. 4, (2Z,7Z,10S,11R,12S,13S,14S,15Z)-13-[(aminocarbonyl)oxy]-5,11-dihydroxy-N,4,6,8,10,12,14-heptamethyl-N-phenyl 2,7,15,17-octadecatetraenamide] | 3200 nM | 800 nM | 500 nM | 400 nM |
